Experimental data: patent publication US8580802B2, “Pyrrolo[2,3-D]pyrimidines as inhibitors of Janus kinases” (Vertex Pharmaceuticals Incorporated, priority 2005, dated 2013)
Counter-ions that a name gives are not always drawn.

Experiments:
JAK2 = JAK2 (Homo sapiens, UniProt O60674); assay: JAK2 Inhibition Assay; type: biochemical; conditions: JAK-2 enzyme, 15 μM poly(Glu)4Tyr, 12 μM ATP
Outline: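 Radiometric kinase assay with 1 nM JAK2 in pH 7.4 HEPES buffer (10 mM MgCl2, 1 mM DTT, 0.01% BSA), final 15 μM poly(Glu)4Tyr and 12 μM [33P]-ATP. Run 20 min at 25 °C, stopped with TCA; 33P incorporation captured on glass-fibre filters and read by scintillation counting.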

JAK3 = molecular target: T1, JAK3 (Homo sapiens, UniProt P52333); assay: JAK3 Inhibition Assay; type: biochemical; conditions: 1 nM JAK3, 1 μM poly(Glu)4Tyr, 5 μM ATP, 25° C.; read-out: enzyme inhibition data (Ki) JAK3
T1 sequence (P52333 1-1124): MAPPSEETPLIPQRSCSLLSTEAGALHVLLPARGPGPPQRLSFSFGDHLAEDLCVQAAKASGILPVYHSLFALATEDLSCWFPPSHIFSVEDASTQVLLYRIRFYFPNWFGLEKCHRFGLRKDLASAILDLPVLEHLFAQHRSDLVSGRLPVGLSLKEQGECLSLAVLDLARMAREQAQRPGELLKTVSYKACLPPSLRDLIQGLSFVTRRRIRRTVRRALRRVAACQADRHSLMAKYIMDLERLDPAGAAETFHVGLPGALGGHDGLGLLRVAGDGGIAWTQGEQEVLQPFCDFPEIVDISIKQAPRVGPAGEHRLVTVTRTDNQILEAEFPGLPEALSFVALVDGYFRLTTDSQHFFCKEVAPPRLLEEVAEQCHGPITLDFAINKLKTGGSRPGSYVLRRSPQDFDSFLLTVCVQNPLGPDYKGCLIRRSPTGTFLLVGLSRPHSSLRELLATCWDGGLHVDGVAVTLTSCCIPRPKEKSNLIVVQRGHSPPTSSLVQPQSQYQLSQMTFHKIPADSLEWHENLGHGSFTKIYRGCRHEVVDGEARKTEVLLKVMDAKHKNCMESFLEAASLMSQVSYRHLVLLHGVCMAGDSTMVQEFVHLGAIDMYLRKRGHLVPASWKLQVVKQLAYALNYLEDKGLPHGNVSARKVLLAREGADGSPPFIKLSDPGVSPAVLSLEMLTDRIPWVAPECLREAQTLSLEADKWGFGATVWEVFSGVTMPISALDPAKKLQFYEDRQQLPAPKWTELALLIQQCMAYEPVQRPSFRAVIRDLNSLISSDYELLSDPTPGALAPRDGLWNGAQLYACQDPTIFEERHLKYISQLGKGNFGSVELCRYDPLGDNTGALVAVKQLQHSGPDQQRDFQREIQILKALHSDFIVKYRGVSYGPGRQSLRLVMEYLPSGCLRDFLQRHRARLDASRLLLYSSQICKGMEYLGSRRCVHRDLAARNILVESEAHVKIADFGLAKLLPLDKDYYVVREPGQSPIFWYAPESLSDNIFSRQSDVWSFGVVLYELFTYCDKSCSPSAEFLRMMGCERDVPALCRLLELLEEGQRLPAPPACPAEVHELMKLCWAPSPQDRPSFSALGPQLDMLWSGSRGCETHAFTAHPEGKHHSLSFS
Outline: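 Radiometric ^33P incorporation into poly(Glu)4Tyr (1 μM) by 1 nM human JAK3 at 5 μM ATP, in HEPES pH 7.4 buffer with MgCl2, DTT and BSA. Reaction ran 20 min at 25° C, stopped with TCA, then filtered before scintillation counting.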

Chain of JAK2 (O60674 whole entry): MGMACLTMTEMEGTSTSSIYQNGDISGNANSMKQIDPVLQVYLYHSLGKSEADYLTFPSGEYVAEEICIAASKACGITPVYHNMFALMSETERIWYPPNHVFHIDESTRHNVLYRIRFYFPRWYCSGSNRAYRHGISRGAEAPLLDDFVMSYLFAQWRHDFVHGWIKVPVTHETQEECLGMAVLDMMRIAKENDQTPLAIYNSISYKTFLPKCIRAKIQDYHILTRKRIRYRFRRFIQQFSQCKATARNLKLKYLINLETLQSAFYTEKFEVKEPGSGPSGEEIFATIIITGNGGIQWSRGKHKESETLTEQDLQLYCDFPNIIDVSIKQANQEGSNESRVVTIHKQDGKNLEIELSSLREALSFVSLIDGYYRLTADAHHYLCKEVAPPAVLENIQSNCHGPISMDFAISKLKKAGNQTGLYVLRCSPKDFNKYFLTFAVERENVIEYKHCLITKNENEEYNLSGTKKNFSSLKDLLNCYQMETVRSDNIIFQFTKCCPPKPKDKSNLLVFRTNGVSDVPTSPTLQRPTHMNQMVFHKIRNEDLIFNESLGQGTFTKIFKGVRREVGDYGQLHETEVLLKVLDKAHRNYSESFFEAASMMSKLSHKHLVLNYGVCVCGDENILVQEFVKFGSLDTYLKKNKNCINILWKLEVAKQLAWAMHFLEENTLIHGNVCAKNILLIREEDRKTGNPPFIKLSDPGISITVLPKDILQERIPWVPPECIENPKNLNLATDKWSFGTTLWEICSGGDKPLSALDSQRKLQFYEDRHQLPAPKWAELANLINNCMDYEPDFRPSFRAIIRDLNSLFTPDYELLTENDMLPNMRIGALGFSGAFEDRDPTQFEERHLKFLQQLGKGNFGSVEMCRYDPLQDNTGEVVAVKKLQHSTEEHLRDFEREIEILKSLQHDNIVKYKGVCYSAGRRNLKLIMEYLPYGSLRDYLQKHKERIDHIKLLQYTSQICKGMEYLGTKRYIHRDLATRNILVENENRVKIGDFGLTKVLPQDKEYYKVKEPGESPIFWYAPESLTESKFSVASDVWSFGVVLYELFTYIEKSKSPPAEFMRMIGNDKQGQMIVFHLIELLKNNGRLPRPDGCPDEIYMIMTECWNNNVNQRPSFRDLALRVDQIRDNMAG

Q: Which results are given for `CC[C@@H](Nc1ccnc(-c2c[nH]c3ncncc23)n1)C(=O)NCC(F)(F)F` [Compound 69]?
A: Ki (JAK2): < 500 nM; Ki (JAK3): < 500 nM

Q: For `O=C(NCC(F)(F)F)C1(Nc2ncnc(-c3c[nH]c4ncncc34)n2)CCCC1` [Compound 92], which Ki (JAK2) is on record?
A: < 500 nM

Q: What about the Ki (JAK3) of the same compound?
A: < 500 nM

Q: With `C[C@H](Nc1nc(-c2c[nH]c3ncncc23)cc(N2CCCC2)n1)C(=O)NCC(F)(F)F` [Compound 31, (S)-2-(4-(pyrrolidin-1-yl)-6-(7H-pyrrolo[2,3-d]pyrimidin-5-yl)pyrimidin-2-ylamino)-N-(2,2,2-trifluoroethyl)propanamide] as the compound, how does the Ki (JAK2) read?
A: > 5000 nM

Q: What about the Ki (JAK3) of the same compound?
A: 500 to 5000 nM

Q: `O=C(NCC(F)(F)F)C1COCCN1c1cnc(-c2c[nH]c3ncncc23)nc1` (stereo not drawn) [Compound 60] was tested. Which Ki (JAK2) did it give?
A: 500 to 5000 nM

Q: What about the Ki (JAK3) of the same compound?
A: < 500 nM

Q: How did the Ki (JAK2) turn out when `C[C@@H](Nc1ncnc(-c2c[nH]c3ncncc23)n1)C(=O)NCC(F)(F)F` [Compound 78, (R)-2-(4-(7H-pyrrolo[2,3-d]pyrimidin-5-yl)-1,3,5-triazin-2-ylamino)-N-(2,2,2-trifluoroethyl)propanamide] was run?
A: 500 to 5000 nM

Q: What about the Ki (JAK3) of the same compound?
A: < 500 nM

Q: With `CC(C)(Nc1nc(-c2c[nH]c3ncncc23)ncc1F)C(=O)NCCF` [Compound 106] as the compound, how does the Ki (JAK2) read?
A: < 500 nM

Q: What about the Ki (JAK3) of the same compound?
A: < 500 nM

Q: `C[C@H](Nc1nc(-c2c[nH]c3ncncc23)ncc1F)C(=O)NCC(F)(F)F` [Compound 6, (S)-2-(5-fluoro-2-(7H-pyrrolo[2,3-d]pyrimidin-5-yl)pyrimidin-4-ylamino)-N-(2,2,2-trifluoroethyl)propanamide] was tested. Which Ki (JAK2) did it give?
A: < 500 nM

Q: What about the Ki (JAK3) of the same compound?
A: < 500 nM

Q: Which results are given for `CC(C)[C@H](C(=O)NCC(F)(F)F)n1ccc2cnc(-c3c[nH]c4ncncc34)nc21` [Compound 110, (R)-2-(2-(7H-pyrrolo[2,3-d]pyrimidin-5-yl)-7H-pyrrolo[2,3-d]pyrimidin-7-yl)-N-(2,2,2-trifluoroethyl)-3-methylbutanamide]?
A: Ki (JAK2): < 500 nM; Ki (JAK3): < 500 nM

Q: What does the source list for `O=C(NCC(F)(F)F)C(Nc1nc(-c2c[nH]c3ncncc23)ncc1F)c1cccnc1` (stereo not drawn) [Compound 67]?
A: Ki (JAK2): 500 to 5000 nM; Ki (JAK3): 500 to 5000 nM

Q: What does the source list for `Nc1nc(-c2c[nH]c3ncncc23)ncc1F` [Compound 49]?
A: Ki (JAK2): > 5000 nM; Ki (JAK3): 500 to 5000 nM

Q: With `O=C(NCC(F)(F)F)C1(Nc2ccnc(-c3c[nH]c4ncncc34)n2)CCOC1` (stereo not drawn) [Compound 101] as the compound, how does the Ki (JAK2) read?
A: < 500 nM

Q: And the Ki (JAK3)?
A: < 500 nM

Q: Which Ki (JAK2) does the source give for `O=C(NCC(F)(F)F)[C@@H]1C[C@H](F)CN1c1nc(-c2c[nH]c3ncncc23)ncc1F` [Compound 52] here?
A: 500 to 5000 nM

Q: What about the Ki (JAK3) of the same compound?
A: 500 to 5000 nM

Q: Which Ki (JAK2) does the source give for `CC1(C(=O)NCC(F)(F)F)CCCN1c1nc(-c2c[nH]c3ncncc23)ncc1F` (stereo not drawn) [Compound 102] here?
A: < 500 nM

Q: What about the Ki (JAK3) of the same compound?
A: < 500 nM

Q: Which results are given for `C[C@H](Nc1cc(C(=O)N(C)Cc2ccccc2)nc(-c2c[nH]c3ncncc23)n1)C(=O)NCC(F)(F)F` [Compound 17]?
A: Ki (JAK2): 500 to 5000 nM; Ki (JAK3): 500 to 5000 nM

Q: For `O=C(NCC(F)(F)F)C1(Nc2nc(-c3c[nH]c4ncncc34)ncc2F)CC1` [Compound 57], which Ki (JAK2) is on record?
A: < 500 nM

Q: What about the Ki (JAK3) of the same compound?
A: < 500 nM

Q: How did the Ki (JAK2) turn out when `C[C@@H](Nc1nc(-c2c[nH]c3ncncc23)ncc1F)C(=O)NCC(F)(F)F` [Compound 40, (R)-2-(5-fluoro-2-(7H-pyrrolo[2,3-d]pyrimidin-5-yl)pyrimidin-4-ylamino)-N-(2,2,2-trifluoroethyl)propanamide] was run?
A: < 500 nM

Q: What about the Ki (JAK3) of the same compound?
A: < 500 nM

Q: What does the source list for `O=C(NCC(F)(F)F)[C@H](CO)Nc1ccnc(-c2c[nH]c3ncncc23)n1` [Compound 51]?
A: Ki (JAK2): > 5000 nM; Ki (JAK3): > 5000 nM

Q: With `C1=C(c2cccc(-c3c[nH]c4ncncc34)n2)CCNC1` [Compound 29, 6-(7H-Pyrrolo[2,3-d]pyrimidin-5-yl)-1′,2′,3′,6′-tetrahydro-[2,4′]bipyridinyl hydrochloride] as the compound, how does the Ki (JAK2) read?
A: 500 to 5000 nM

Q: And the Ki (JAK3)?
A: 500 to 5000 nM
